Series [1] deals with T1, rat neurotensin receptor type 1 (rNTR-1) (Rattus norvegicus, UniProt P20789).
T1 construct: host or cells: HEK293 cells (membrane homogenates)
Briefly: Competition binding assay with [3H]-neurotensin on rat NTR-1 membranes (HEK293 cells). Particulars: read-out: NTR-1 binding affinity Ki, Rat NTR-1.

The nature of series [2]: In vitro blood stability in freshly collected mouse blood (LC-MS/MS). The class given is in vitro ADME, Swiss (CD-1) mouse. Particulars: whole blood, 2 μM, 37° C.
The subject of series [3] is Swiss (CD-1) mice. Description: Hypothermic response upon four daily i.v. administrations in Swiss (CD-1) mice. The class given is in vivo, mouse. Particulars: 4 mg/kg eq. NT daily i.v. The protocol: In order to determine the hypothermic responsiveness of mice upon repeated administrations of activated NT of the invention, Swiss (CD-1) mice were challenged to four daily intravenous (bolus) administrations of compound XIV at 4 mg/kg eq. NT. Rectal body temperature was monitored each day during 3 hours post-injection.

Series [4] has as its system FVB/N mice with KA-induced status epilepticus. Description: Kainic acid-induced status epilepticus model (body temperature, seizures, neurodegeneration, neuroinflammation, mossy fiber sprouting). Particulars: 30 min after SE onset; first of two values, presumably 2 mg/kg eq. NT. The class given is in vivo, mouse.
For series [5], the system named is mice. Briefly: Tolerance / toxicity after i.v. bolus in mice (MTD, LD50). It is filed as in vivo, mouse. The protocol: NT, which is similar to that measured for compound I and compound II. […] When injected at 20 mg/kg eq. NT in mice, compound XIV was still well-tolerated with no additional safety concerns. […] NT. The Maximal Tolerated Dose (MTD) was 40 mg/kg eq. […] Given that the MED was about 0.1 mg/kg eq. NT, this pharmacodynamic/toxicity profile constitutes an excellent safety prerequisite since i) it prevents potentially lethal overdose due to exacerbated pharmacological hypothermia, and ii) using the intravenous (bolus) mode of administration, the therapeutic window, which is expressed as the fold increase between the MED and MTD, is about 400, with 4-fold security between the dose level eliciting a maximal hypothermic response and that inducing mild/non-lethal toxicity.

Series [6] deals with T2, human neurotensin receptor type 1 (hNTR-1) (Homo sapiens, UniProt P30989).
T2 construct: purchased PerkinElmer; host or cells: CHO cells stably expressing human NTR-1 (membrane homogenates)
Description: Competition binding assay with [3H]-neurotensin on human NTR-1 membranes (CHO cells). Particulars: read-out: NTR-1 binding affinity Ki, Human NTR-1.

Series [7] relates to BBB (brain). Also on record: species or system C57Bl/6 mice. Particulars: mouse, in vivo. Here is the method: (§1) Transport kinetics at the BBB and blood-retina barrier (BRB) of the conjugates of the invention was assessed using an in situ brain perfusion technique in adult male C57Bl/6 mice. Radiolabeled activated NT compounds were obtained either by coupling [3H]Tyr3-NT with the AG or by coupling a tritiated AG to NT molecules. NT was radiolabeled by catalytic dehalogenation of iodoTyr3-NT using tritium gas while AG was radiolabeled by coupling a tritiated propionyl succinimide ester to its N-terminus. The specific radioactivity (SRA) was typically in the range of 50 Ci/mmol. The total quantity of radioactivity prepared for each synthesis was generally between 100 and 1000 μCi.
(§2) The in situ brain perfusion technique enables total control of the composition of the artificial perfusate in order to maintain the cells and vascularization of the brain under normal physiological and anatomical conditions within the animal, without the disrupting factor of systemic distribution. […]
(§3) In situ brain perfusion of the radiolabeled compounds of the invention was performed during 120 s with a perfusate flow rate of 2 mL/min. The initial transport was expressed as the transfer coefficient Kin (relationship between distribution volume of the test compound, corrected for the vascular volume, and cerebral perfusion time).

In series [8] the test system is blood-retina barrier (BRB), eye. Also on record: species or system C57Bl/6 mice. Particulars: mouse, in vivo. Here is the method:
as §1, §2, §3

In series [9] the test system is NMRI mice with yeast-induced hyperthermia. Description: Antipyretic effect in yeast-induced hyperthermia in NMRI mice. It is filed as in vivo, mouse. The protocol: In addition to eliciting a strong hypothermic effect when injected intravenously in naïve mice, we assessed the antipyretic effect of activated NT drugs of the invention in mice with yeast-induced hyperthermia. Briefly, rectal temperature of male NMRI mice was first measured 14 hours before the test using a rectal probe (Baseline 1, two independent measurements at a minimum of 5 min interval). Mice were then injected subcutaneously with either a yeast suspension (512 mg/kg), to induce a hyperthermic response, or hydroxypropylmethylcellulose (HPMC) in saline 0.9%. Fourteen hours later, rectal temperature of the mice was measured again (Baseline 2, two independent measurements at a minimum of 5 min interval) in order to assess the effect of yeast or HPMC injection on baseline temperature.

One may read the Ki as a dissociation constant, usually derived from enzyme kinetics or from competition with a known ligand. As a reminder, the half-life is the time in which the quantity being followed falls by half. A higher half-life goes with slow loss.

T2 sequence (P30989 whole entry): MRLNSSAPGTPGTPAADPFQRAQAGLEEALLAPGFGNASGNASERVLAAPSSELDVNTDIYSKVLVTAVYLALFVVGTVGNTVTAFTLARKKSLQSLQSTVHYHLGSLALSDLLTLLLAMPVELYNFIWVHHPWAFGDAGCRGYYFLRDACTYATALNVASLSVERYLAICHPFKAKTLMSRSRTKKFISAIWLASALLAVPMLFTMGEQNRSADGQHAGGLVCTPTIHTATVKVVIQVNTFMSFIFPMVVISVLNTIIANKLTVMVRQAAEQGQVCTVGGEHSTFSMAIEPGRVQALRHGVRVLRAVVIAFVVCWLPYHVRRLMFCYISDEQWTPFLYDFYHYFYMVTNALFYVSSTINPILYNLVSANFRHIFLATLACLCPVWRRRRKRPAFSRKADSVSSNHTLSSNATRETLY
T1 sequence (P20789 whole entry): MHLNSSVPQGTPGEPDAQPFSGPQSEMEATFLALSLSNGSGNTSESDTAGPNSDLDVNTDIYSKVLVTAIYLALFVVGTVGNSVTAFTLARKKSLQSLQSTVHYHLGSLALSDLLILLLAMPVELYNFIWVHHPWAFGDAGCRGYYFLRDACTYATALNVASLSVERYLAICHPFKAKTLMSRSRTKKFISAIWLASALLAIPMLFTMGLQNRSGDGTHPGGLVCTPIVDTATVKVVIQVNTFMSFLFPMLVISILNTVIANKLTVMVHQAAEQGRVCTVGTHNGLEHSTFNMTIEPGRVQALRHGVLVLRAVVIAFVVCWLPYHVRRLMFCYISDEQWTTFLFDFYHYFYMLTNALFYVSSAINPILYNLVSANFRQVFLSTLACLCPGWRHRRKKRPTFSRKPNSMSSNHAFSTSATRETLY

Regarding `CCC(=O)N[C@@H]1CSSC[C@@H](C(=O)NCCOCCOCCOCCOCCOCCOCCC(=O)N[C@@H](CCCNC(=N)N)C(=O)N[C@@H](CCCNC(=N)N)C(=O)N2CCC[C@H]2C(=O)N[C@@H](Cc2ccc(O)cc2)C(=O)N[C@H](C(=O)N[C@@H](CC(C)C)C(=O)O)[C@@H](C)CC)NC(=O)CN(C)C(=O)[C@H](CCCNC(=N)N)NC(=O)[C@H](CC(C)C)NC(=O)[C@H](CCCNC(=N)N)NC(=O)[C@@H]2CCCCN2C(=O)[C@H](CCSC)NC1=O` [Compound XIV, Pr-cMPipRLRSarC-PEG6-RRPYIL-OH], the Ki in series [1] was found to be 1.06 ± 0.47 nM. In [2], this compound registered a half-life of 1.6 h. In [3] (day 1, 45 min post-injection), the “maximal decrease in body temperature, day 1” value is −5.5 °C. Besides, in series [3] (day 2 to day 4, 30 min post-injection), the “mean decrease in body temperature, day 2 to day 4” value is −3 °C. Further, the “mean decrease in body temperature compared to SE animals (first value)” value in series [4] was −2.5 °C. In addition, the tolerance result in series [5] (20 mg/kg eq. NT, mice) is on record as “well-tolerated”. In addition, in [5] (i.v. bolus), the “security between dose eliciting maximal hypothermic response and dose inducing mild/non-lethal toxicity” value was 4 fold; the “therapeutic window (fold increase between the MED and MTD)” value is given as “about 400 fold”. The “Maximal Tolerated Dose (MTD)” value in [5] (i.v. bolus, mice) was 40 mg/kg eq. NT. In addition, the “LD50 (Lethal Dose, 50%)” value in series [5] (i.v. bolus, mice, not reached) is over 40 mg/kg eq. NT. Also, in series [6], the Ki came out at 0.22 ± 0.06 nM. For the same compound, the “transfer coefficient Kin in the brain” value in series [7] turned out to be 0.000365 mL/s/g. Also, the “transfer coefficient Kin in the eye” value in series [8] was 0.00033 mL/s/g. Besides, in series [9] (6 mg/kg eq. NT i.v.), the “further decrease of body temperature” value amounted to 4.7 °C. Moreover, the “maximal antipyretic effect compared to Baseline 2 or saline” value in [9] (as of 2 mg/kg eq. NT i.v., 15 min post-injection) was −2.2 °C.
